From patent US6627734B1 (dated 2003) come the findings set out here.

In the test the test system is expressed full length clones containing these insertions (KOR-3a, KOR-3b, KOR-3c). Put plainly: Preliminary binding of [3H]naloxone benzoylhydrazone to expressed full length KOR-3 splice variant clones. More on the design: species or system mouse. To be noted: preliminary studies; expressed full length clones with mini-exon insertions (KOR-3a, KOR-3b, KOR-3c); radioligand.

With `C=CCN1CC[C@]23c4c5ccc(O)c4O[C@H]2/C(=N/NC(=O)c2ccccc2)CC[C@@]3(O)[C@H]1C5` [[^3H]naloxone benzolhydrazone], the “binding of the kappa3 ligand by the expressed full length clones” value is recorded as “quite well”.
